Source: publication PMC7503767, “Alkoxyamines Designed as Potential Drugs against Plasmodium and Schistosoma Parasites” (Molecules, 2020)

Legend:
Adult S. mansoni = test: In vitro antischistosomal activity on adult worms; type: cell-based, Schistosoma mansoni; details: adult S. mansoni, single dose 100 µg/mL, observation up to 8 h
Method in brief: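 NMRI-strain adult worms, perfused from hamsters 42–47 days post-infection, held in RPMI 1640 (25 mM Hepes) with Tween 80/DMSO vehicle at 37 °C, 5% CO2 and exposed to 100 µg/mL drug, in duplicate. Moving worms counted hourly up to 8 h; no contraction over 30 s scored dead. Mean survival time from Kaplan–Meier analysis.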

[1] = system: P. falciparum F32-TEM (artemisinin-sensitive strain); test: Standard chemosensitivity assay (SYBR Green I), F32-TEM; type: cell-based, Plasmodium falciparum; details: Plasmodium falciparum, F32, 48 h, read-out: P. falciparum Strains Mean IC50, F32-TEM, 48 h; ^1 n = 1, ^2 n = 2
Protocol: (§1) F32-ART5, an artemisinin-resistant strain and F32-TEM, an artemisinin-sensitive strain, were obtained from the parental clone F32-Tanzania, respectively under regular drug pressure cycles of increasing artemisinin concentrations for 5 years and without any artemisinin pressure. After these drug pressure cycles allowing selection of the F32-ART5 strain, regular drug pressures were performed to maintain its phenotype. […] Briefly, parasites were cultured in RPMI 1640 (Fisher Scientific, Waltham, Illkirch-Graffenstaden, France) supplemented with 5% type AB human serum (Etablissement français du Sang, Toulouse, France) and adjusted at a parasitemia of 1% and 2% hematocrit with type O human at 37 °C and 5% CO2. Parasite development was daily monitored by Giemsa staining.
(§2) Briefly, for the determination of IC50 values, the chemosensitivity assay was carried out in 96-well culture plates on D-sorbitol ring-stage synchronized parasites and antiplasmodial activities were evaluated using the SYBR Green I method. Drug testing was performed in triplicates in a dose range of 5 to 7 concentrations. […] Parasites were left to proliferate with the given compounds for 48 h at 37 °C and 5% CO2. After this period, pellets were washed 3 times in sterile PBS prior to putting the plates at −20 °C overnight to lyse all red blood cells. The following day, the plates were thawed at room temperature, 100 µL of each well was transferred into a black 96-well plate to which another 100 µL of 2× PBS-diluted SYBR Green I (Sigma-Aldrich) was added and left to incubate for 2 h at room temperature prior to reading the plates on BioTek FL× 800 Microplate Fluorescence Reader (λexcitation = 485 nm, λemission = 528 nm).
(§3) IC50 values were determined using GraphPad Prism by drawing the curve % inhibition vs. [Drug] and using a four-parameter dose–response curve with the following equation: Y=Bottom+ Top−Bottom/1+x^Hill Slope/IC50Hill Slope

[2] = system: P. falciparum F32-ART5 (artemisinin-resistant strain); test: Standard chemosensitivity assay (SYBR Green I), F32-ART5; type: cell-based, Plasmodium falciparum; details: Plasmodium falciparum, F32, 48 h, read-out: P. falciparum Strains Mean IC50, F32-ART5, 48 h; ^1 n = 1, ^2 n = 2
Protocol: as §1, §2, §3

[3] = system: P. falciparum chloroquine-resistant strain FcB1-Columbia; test: Antiplasmodial screen at 10 µM and chemosensitivity assay (SYBR Green I), FcB1-Columbia; type: cell-based, Plasmodium falciparum; details: read-out: IC50 on P. falciparum; FcB1-Columbia strain
Cytotoxicity assay (MTT) = details: African green monkey, Cytotoxicity Mean IC50, Vero cell lines, 48 h, MTT
Protocol: (§4) Vero cells were cultured in MEM (Dutscher, Brumath, France) supplemented with 10% fetal bovine serum, 1× non-essential amino acids, 100 U/mL, 100 µg/mL penicillin/streptomycin, and 2 mM L-glutamine at 37 °C in a humidified 5% CO2 atmosphere. […] At this time, each well was microscope-examined for detection of possible precipitate formation prior to remove the supernatant by flicking the plate. 100 µL of a 0.5 mg/mL PBS-dissolved MTT tetrazolium (stock solution at 5 mg/mL) was then added to each well [48]. The plates were then incubated for 1 h at 37 °C and 5% CO2 prior to removing the supernatant and adding 100 µL of DMSO. Plates were gently shaken to dissolve formazan crystals resulting from the MTT tetrazolium reduction by living cells and read at 570 nm with BioTek µQuant Microplate Spectrophotometer.

Vero cells = test: Cytotoxicity assay (MTT); details: ratio cytotoxicity (Vero)/activity on Plasmodium
Protocol: as §4

[4] = system: P. falciparum F32-ART5 (artemisinin-resistant); test: Recrudescence assay, F32-ART5; type: cell-based, Plasmodium falciparum; details: 48 h treatment; artemisinin 18 µM, (RS/SR)-2F 5 µM; followed 30 days
Protocol: (§5) The lead compound, (RS/SR)-2F, was tested in a recrudescence assay, to assess cross-resistance with artemisinin, according to Ménard et al.. Briefly, F32-TEM and F32-ART5 parasites were synchronized at ring-stage by D-sorbitol treatment prior to treating them with the drug of interest for 48 h, then washed and allowed to grow in drug-free medium. Parasitemia was monitored every other day for 30 days to determine the day when parasite cultures reached the t0 initial parasitemia. […] Artemisinin was used as control to confirm differences in recrudescence times between both strains. Three independent experiments were performed for (RS/SR)-2F and artemisinin tested in parallel.

[5] = system: P. falciparum F32-TEM (artemisinin-sensitive); test: Recrudescence assay, F32-TEM; type: cell-based, Plasmodium falciparum; details: 48 h treatment; artemisinin 18 µM, (RS/SR)-2F 5 µM; followed 30 days
Protocol: as §5

[6] = Homolysis of the NO–C bond measured by EPR
Protocol: Homolysis rate constants kd’ were measured by EPR and estimated using Equation (1) as reported many times in the literature. Further, Ea and kd were estimated using Equation (2). (1) ln([nitroxide]∞−[nitroxide]t/[nitroxide]∞)=−kd·t (2) Ea=−RT ln([…] kd′ )

CCOP(=O)(OCC)C(N(OC(C)c1cc(-c2ccccn2)nc(-c2ccccn2)c1)C(C)(C)CO)C(C)(C)C (stereo not drawn) [(RS/SR)-2F, Diethyl(1-((1-([2,2′:6′,2′′-terpyridin]-4′-yl)ethoxy)(1-hydroxy-2-methylpropan-2-yl)amino)-2,2-dimethylpropyl)phosphonate]
S. mansoni Mean Survival Time (Adult S. mansoni): 2.1 ± 0.1 h | IC50 [1]: 600 ± 100 nM | IC50 [2]: 500 ± 100 nM | IC50 [3]: 300 nM | IC50 at 48 h (Cytotoxicity assay (MTT)): 800 ± 300 nM | Selectivity Index (Vero cells): 1 | Median (Range) Recrudescence Time, F32-ART5 [4]: 16 (15–17) Days | Median (Range) Recrudescence Time, F32-TEM [5]: > 30 days | activation energy Ea ([6]; MeOH/water 1:1 pH = 7.4): 28.25 kcal/mol | re-estimated homolysis rate constant kd at 120 °C ([6]; MeOH/water 1:1 pH = 7.4): 46.7 10^−3 s^−1 | half-lifetime t1/2 at 37 °C ([6]; MeOH/water 1:1 pH = 7.4 (aqueous medium)): 64.8 h | homolysis rate constant kd′ ([6]; MeOH/water 1:1 pH = 7.4, 81 °C): 8.7 10^−4s^−1 | half-life ([6]; buffer, pH 7.4, half-lifetime t1/2 at 37 °C, MeOH/water 1:1 pH = 7.4 (aqueous medium)): 48 to 96 h | half-life ([6]; half-lifetime t1/2 at 37 °C, t-BuPh): 72 to 120 h | activation energy Ea ([6]; t-BuPh): 28.61 kcal/mol | half-lifetime t1/2 at 37 °C ([6]; t-BuPh): 115 h | re-estimated homolysis rate constant kd at 120 °C ([6]; t-BuPh): 29.9 10^−3 s^−1 | homolysis rate constant kd′ ([6]; t-BuPh, 81 °C): 5.3 10^−4s^−1
